The text below walks through data of patent US20050112573A1, “Method of detecting toxic substance” (priority 2001, published 2005).

Assay type in all cases: cell-based, Saccharomyces cerevisiae W303
Test [1] concerns promoter of yeast gene YKL071w. As to conditions: SC-YKL071W-pQBI cells, 25° C., two hours; each substance at the concentration given. From the text: (§1) The inventors of the present application understood that the induction of certain yeast genes by toxic substances is caused by the activation of the promoters of the genes by the toxic substances. Thus, the inventors prepared a vector that comprised a polynucleotide sequence comprising the promoter of the yeast gene, which sequence is operably linked to a polynucleotide encoding a marker protein; and transformed yeast cells with the vector. […] The working examples hereinafter illustrate the preparation of such vectors, transformation of yeast cells by use of said vectors, and the detection of toxic substances by use of the transformed cells.
(§2) Promoter assay is a method for determining variations of the level of intracellular genes without destroying cells on the basis of the level of expressed marker genes instead of the expressed mRNA. The gene selected to detect a chemical substance is expressed in the absence of chemical substances, and thus a marker protein also occurs in the absence of chemical substances. In the method according to the present invention, the behavior of yeast genes on the addition of test materials is determined on the basis of the level of expressed marker protein so that the presence or the absence, and the kind of toxic chemical substances are predicted. Thus, it is desired that the production of marker proteins is lower in the absence of chemical substances, and the production of marker proteins is higher in the presence of chemical substances.
(§3) Type YEp shuttle vector pYES2 (pYES2, Cat no: V825-20, Invirtogen Corporation, USA), which can be replicated both in E. coli. and yeast was used as vector (R. W. Old, S. B. Primrose Principles of Gene Manipulation 5th Ed., BAIFUKAN CO., LTD, pp138-165, pp.234-263, 2000). The portion of vector pQBI 63 (Cat no.54-0082, Wako Pure Chemical Industries, Ltd.) corresponding to a marker protein GFP was used as the polynucleotide encoding GFP (SEQ ID No: 6). First, the GFP polynucleotide was inserted into the multiple cloning sites of pYES2 to give a vector. Thereafter, the GAL1 promoter of pYES2 was replaced with the polynucleotide comprising the promoter sequence of the intended yeast gene YKL071w (SEQ ID No: 1) to give an intended plasmid vector. Suitable restriction enzymes were selected, and the insertion of the polynucleotide comprising GFP and the promoter sequence was conducted.
(§4) Next, the yeast Saccharomyces cerevisiae W303 was transformed with the resultant plasmid vector according to the following procedures: • 1) Incubating the yeast Saccharomyces cerevisiae W303 in 200 ml of SD medium under shaking until OD 660 reaches 0.5; • 2) Suspending the collected cells in 5 ml of TE-buffer; • 3) Adding 250 μL of 2.5M lithium acetate; • 4) Dispending each 300 μl, adding 10 μl of above plasmid vector thereto, then incubating the suspensions at 30° C. for 30 minutes; • 5) Adding 700 μl of 50% PEG4000, and incubating the mixture under shaking at 30° C. for 60 minutes; • 6) Giving heat shock (42° C., 5 minutes), and then immediately cooling the mixture; • 7) Washing the mixture twice with 1M sorbitol; and • 8) Seeding it on agar plates made of minimum essential medium.
The cells of SC-YKL071W-pQBI as prepared in Example 2 were contacted to one of the following compounds. The yeast cells SC-YKL071W-pQBI were incubated at 25° C. in SD medium (Yeast nitrogen base without amino acids (Difco 0919-15)+glucose+amino acids (adenine, histidine, tryptophan)). One of toxic chemical substances as shown below was added to the cells at logarithmic growth phase, and then the cells were further incubated for two hours.

Test [2] relates to promoter of yeast gene YCR102c. As to conditions: cells SC-YCR102C-pQBI, 2 hours incubation with the substance at the concentration printed in its row (column Concentrations); GFP fluorescence vs control without chemical.
Text: as §1, §2
as §3, with “PQBI” for “pQBI”, “GALL” for “GAL1”, “YCR102c” for “YKL071w”, “2)” for “1)”
as §4
The cells of SC-YCR102C-pQBI as prepared in Example 3 were contacted to one of the following compounds. The yeast cells SC-YCR102C-pQBI were incubated at 25° C. in SD medium (Yeast nitrogen base without amino acids (Difco 0919-15)+glucose+amino acids (adenine, histidine, tryptophan)). One of toxic chemical substances as shown below was added to the cells at logarithmic growth phase, and then the cells were further incubated for two hours.

The test system of test [3] is promoter of yeast gene YLR303w.
Text: as §1, §2
as §3, with “YLR303w” for “YKL071w”, “5)” for “1)”
as §4
The cells of SC-YCR303W-pQBI as prepared in Example 6 were contacted to one of the following compounds. The yeast cells SC-YCR303W-pQBI were incubated at 25° C. in SD medium (Yeast nitrogen base without amino acids (Difco 0919-15)+glucose+amino acids (adenine, histidine, tryptophan)). One of toxic chemical substances as shown below was added to the cells at logarithmic growth phase, and then the cells were further incubated for two hours.

For “manganese ethylenebis(dithiocarbamate) [(8)]”, the Fluorescens entry in test [1] is on record as “− (the number of the cells having a higher fluorescence than the control was under 1%)”. For the same substance, the Fluorescence result in test [2] was “− (the number of the cells having a higher fluorescence than the control was under 1%)”. Also, the “expression of GFP” value in test [3] (SC-YCR303W-pQBI cells (so in the source), summary of Table 14) was “induced the expression of GFP”.

As for γ-hexachlorocyclohexane [(7)], the Fluorescens result in test [1] is recorded as “− (the number of the cells having a higher fluorescence than the control was under 1%)”. Moreover, the Fluorescence result was “− (the number of the cells having a higher fluorescence than the control was under 1%)” in test [2] and “− (the number of the cells having a higher fluorescence than the control was under 1%)” in test [3] (cells SC-YCR303W-pQBI (so in the source), 2 hours incubation with the substance at the concentration printed in its row (column Concentrations), GFP fluorescence vs control without chemical).
